Source: paper PMC10444810, “Induction of open-form bile canaliculus formation by hepatocytes for evaluation of biliary drug excretion” (Communications Biology, 2023)
Several values for one entry are separate records, joined by “and”; a condition that tells them apart may be missing. Equal entries are not always repeated.

Key:
Format in all cases: in vitro ADME
Details in all cases: for Enzyme activity, Mean: mean of Well-1 to Well-4
CYP2D6 = target: T1, CYP2D6 (Homo sapiens, UniProt P10635); experiment: Metabolic assay, cocktail substrate method (bufuralol to 1’-hydroxybufuralol)
T1 construct: host or cells: PXB-cells (icHep: JFC, HUM181001B; sandwich culture: JFC)
Protocol: (§1) The metabolic activity of icHep and sandwich-cultured PXB-cells was measured using the cocktail substrate method of drug-metabolizing enzymes. The components of the cocktail are summarized in Supplementary Table 1. Assays were initiated by treating cells with TB containing cocktail substrates. Time point of each substrate was set when a linear increase in its metabolite production was observed. Concentrations of metabolites produced in the medium were measured by liquid chromatography-mass spectrometry (LC-MS/MS).

CYP3A4 = target: T2, CYP3A4 (Homo sapiens, UniProt P08684); experiment: Metabolic assay, cocktail substrate method (midazolam to 1’-hydroxymidazolam)
T2 construct: host or cells: PXB-cells (icHep: JFC, HUM181001B; sandwich culture: JFC)
Protocol: as §1

CYP2E1 = target: T3, CYP2E1 (Homo sapiens, UniProt P05181); experiment: Metabolic assay, cocktail substrate method (chlorzoxazone to 6’-hydroxychlorzoxazone)
T3 construct: host or cells: PXB-cells (icHep: JFC, HUM181001B; sandwich culture: JFC)
Protocol: as §1

[1] = PXB-cells (JFC), incubation time 15 min, single wells
[2] = PXB-cells (JFC), incubation time 30 min, single wells
[3] = PXB-cells (JFC), incubation time 45 min, single wells
[4] = PXB-cells (JFC), incubation time 60 min, single wells
[5] = PXB-cells (JFC), incubation time 90 min, single wells
[6] = PXB-cells (JFC), rate per single well
[7] = icHep (HUM18100B), incubation time 15 min, single wells
[8] = icHep (HUM18100B), incubation time 30 min, single wells
[9] = icHep (HUM18100B), incubation time 45 min, single wells
[10] = icHep (HUM18100B), incubation time 60 min, single wells
[11] = icHep (HUM18100B), incubation time 90 min, single wells
[12] = icHep (HUM18100B), rate per single well
[13] = icHep (JFC), incubation time 15 min, single wells
[14] = icHep (JFC), incubation time 30 min, single wells
[15] = icHep (JFC), incubation time 45 min, single wells
[16] = icHep (JFC), incubation time 60 min, single wells
[17] = icHep (JFC), incubation time 90 min, single wells
[18] = icHep (JFC), rate per single well

T2 sequence (P08684 whole entry): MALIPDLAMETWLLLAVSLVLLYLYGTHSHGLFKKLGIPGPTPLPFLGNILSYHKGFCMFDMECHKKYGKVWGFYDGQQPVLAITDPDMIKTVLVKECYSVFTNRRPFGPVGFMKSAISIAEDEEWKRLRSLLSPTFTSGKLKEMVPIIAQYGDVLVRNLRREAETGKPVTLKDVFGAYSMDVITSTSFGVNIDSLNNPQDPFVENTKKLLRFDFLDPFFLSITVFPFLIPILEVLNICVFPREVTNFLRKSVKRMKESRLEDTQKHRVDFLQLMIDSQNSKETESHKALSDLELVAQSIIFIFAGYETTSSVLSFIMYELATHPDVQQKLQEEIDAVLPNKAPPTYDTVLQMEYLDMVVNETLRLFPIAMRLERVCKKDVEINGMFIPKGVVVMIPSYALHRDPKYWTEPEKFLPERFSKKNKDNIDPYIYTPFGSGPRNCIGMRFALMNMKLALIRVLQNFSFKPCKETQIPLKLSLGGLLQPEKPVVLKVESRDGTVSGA
T1 sequence (P10635 whole entry): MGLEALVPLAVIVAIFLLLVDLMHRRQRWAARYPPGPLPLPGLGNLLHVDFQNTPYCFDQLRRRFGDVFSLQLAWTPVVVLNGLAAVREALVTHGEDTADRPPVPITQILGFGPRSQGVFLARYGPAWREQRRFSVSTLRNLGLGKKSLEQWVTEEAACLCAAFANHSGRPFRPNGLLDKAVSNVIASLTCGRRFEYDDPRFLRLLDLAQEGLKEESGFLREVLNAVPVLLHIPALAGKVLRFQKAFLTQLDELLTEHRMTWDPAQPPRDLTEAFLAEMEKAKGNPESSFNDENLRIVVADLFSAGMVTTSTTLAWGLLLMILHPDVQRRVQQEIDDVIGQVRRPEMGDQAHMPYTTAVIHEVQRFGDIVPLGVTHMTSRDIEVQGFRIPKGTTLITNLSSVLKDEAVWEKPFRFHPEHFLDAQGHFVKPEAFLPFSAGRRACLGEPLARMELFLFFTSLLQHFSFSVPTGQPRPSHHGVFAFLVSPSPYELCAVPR
T3 sequence (P05181 whole entry): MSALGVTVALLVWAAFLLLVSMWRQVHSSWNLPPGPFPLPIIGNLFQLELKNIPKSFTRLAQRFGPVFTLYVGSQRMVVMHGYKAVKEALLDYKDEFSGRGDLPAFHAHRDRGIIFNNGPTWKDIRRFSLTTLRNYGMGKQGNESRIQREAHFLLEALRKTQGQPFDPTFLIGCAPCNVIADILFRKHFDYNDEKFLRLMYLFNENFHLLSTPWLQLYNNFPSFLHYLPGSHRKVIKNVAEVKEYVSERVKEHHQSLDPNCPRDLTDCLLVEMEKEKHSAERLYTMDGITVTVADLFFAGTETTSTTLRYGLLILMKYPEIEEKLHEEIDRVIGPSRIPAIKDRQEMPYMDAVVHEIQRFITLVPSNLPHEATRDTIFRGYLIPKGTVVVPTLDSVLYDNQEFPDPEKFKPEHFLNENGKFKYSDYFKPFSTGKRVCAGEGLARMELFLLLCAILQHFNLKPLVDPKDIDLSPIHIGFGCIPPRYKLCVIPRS

## CC(O)c1cccc2cc(C(O)CNC(C)(C)C)oc12 (centres unmarked) [1'-hydroxybufuralol]
CYP2D6; [1]
  Enzyme activity: 16.9358 pmol/106 cells and 20.2476 pmol/106 cells and 18.9803 pmol/106 cells and 17.4477 pmol/106 cells
CYP2D6; [2]
  Enzyme activity: 29.3048 pmol/106 cells and 32.2567 pmol/106 cells and 32.3369 pmol/106 cells and 36.5879 pmol/106 cells
CYP2D6; [3]
  Enzyme activity: 57.2694 pmol/106 cells and 67.3705 pmol/106 cells and 63.1354 pmol/106 cells and 57.1013 pmol/106 cells
CYP2D6; [4]
  Enzyme activity: 88.7619 pmol/106 cells and 86.626 pmol/106 cells and 83.8364 pmol/106 cells and 89.8476 pmol/106 cells
CYP2D6; [5]
  Enzyme activity: 79.3357 pmol/106 cells and 85.9811 pmol/106 cells and 83.3593 pmol/106 cells and 74.6468 pmol/106 cells
CYP2D6; PXB-cells (JFC)
  Enzyme activity, Mean: 1.57 pmol/min/106 cells
CYP2D6; [6]
  Enzyme activity: 1.62 pmol/min/106 cells and 1.56 pmol/min/106 cells and 1.50 pmol/min/106 cells and 1.58 pmol/min/106 cells
CYP2D6; [7]
  Enzyme activity: 20.6578 pmol/106 cells and 24.0318 pmol/106 cells and 24.5391 pmol/106 cells and 24.1229 pmol/106 cells
CYP2D6; [8]
  Enzyme activity: 38.6716 pmol/106 cells and 36.9398 pmol/106 cells and 37.9846 pmol/106 cells and 33.7885 pmol/106 cells
CYP2D6; [9]
  Enzyme activity: 56.8381 pmol/106 cells and 54.0547 pmol/106 cells and 51.5492 pmol/106 cells and 53.9902 pmol/106 cells
CYP2D6; [10]
  Enzyme activity: 80.7041 pmol/106 cells and 78.1674 pmol/106 cells and 75.41 pmol/106 cells and 73.212 pmol/106 cells
CYP2D6; [11]
  Enzyme activity: 107.294 pmol/106 cells and 123.561 pmol/106 cells and 104.675 pmol/106 cells and 114.288 pmol/106 cells
CYP2D6; icHep (HUM18100B)
  Enzyme activity, Mean: 1.33 pmol/min/106 cells
CYP2D6; [12]
  Enzyme activity: 1.40 pmol/min/106 cells and 1.37 pmol/min/106 cells and 1.25 pmol/min/106 cells and 1.31 pmol/min/106 cells
CYP2D6; [13]
  Enzyme activity: 27.4857 pmol/106 cells and 27.0951 pmol/106 cells and 24.9076 pmol/106 cells and 26.1443 pmol/106 cells
CYP2D6; [14]
  Enzyme activity: 41.2873 pmol/106 cells and 33.111 pmol/106 cells and 48.4523 pmol/106 cells and 44.4518 pmol/106 cells
CYP2D6; [15]
  Enzyme activity: 63.4972 pmol/106 cells and 59.7018 pmol/106 cells and 65.0037 pmol/106 cells and 67.8302 pmol/106 cells
CYP2D6; [16]
  Enzyme activity: 89.1933 pmol/106 cells and 91.8156 pmol/106 cells and 102.797 pmol/106 cells and 101.548 pmol/106 cells
CYP2D6; [17]
  Enzyme activity: 106.28 pmol/106 cells and 107.567 pmol/106 cells and 125.014 pmol/106 cells and 113.156 pmol/106 cells
CYP2D6; icHep (JFC)
  Enzyme activity, Mean: 1.55 pmol/min/106 cells
CYP2D6; [18]
  Enzyme activity: 1.43 pmol/min/106 cells and 1.69 pmol/min/106 cells and 1.64 pmol/min/106 cells and 1.42 pmol/min/106 cells

## OCc1ncc2n1-c1ccc(Cl)cc1C(c1ccccc1F)=NC2 [1'-hydroxymidazolam]
CYP3A4; [1]
  Enzyme activity: 85.9964 pmol/106 cells and 107.28 pmol/106 cells and 107.269 pmol/106 cells and 94.4354 pmol/106 cells
CYP3A4; [2]
  Enzyme activity: 157.896 pmol/106 cells and 182.793 pmol/106 cells and 221.326 pmol/106 cells and 195.956 pmol/106 cells
CYP3A4; [3]
  Enzyme activity: 229.127 pmol/106 cells and 265.395 pmol/106 cells and 205.135 pmol/106 cells and 181.378 pmol/106 cells
CYP3A4; [4]
  Enzyme activity: 216.024 pmol/106 cells and 232.078 pmol/106 cells and 207.606 pmol/106 cells and 244.165 pmol/106 cells
CYP3A4; [5]
  Enzyme activity: 251.177 pmol/106 cells and 288.431 pmol/106 cells and 316.537 pmol/106 cells and 214.43 pmol/106 cells
CYP3A4; PXB-cells (JFC)
  Enzyme activity, Mean: 6.05 pmol/min/106 cells
CYP3A4; [6]
  Enzyme activity: 4.79 pmol/min/106 cells and 5.03 pmol/min/106 cells and 7.60 pmol/min/106 cells and 6.77 pmol/min/106 cells
CYP3A4; [7]
  Enzyme activity: 124.221 pmol/106 cells and 126.279 pmol/106 cells and 141.412 pmol/106 cells and 115.91 pmol/106 cells
CYP3A4; [8]
  Enzyme activity: 259.113 pmol/106 cells and 258.447 pmol/106 cells and 251.469 pmol/106 cells and 277.435 pmol/106 cells
CYP3A4; [9]
  Enzyme activity: 382.492 pmol/106 cells and 333.832 pmol/106 cells and 305.042 pmol/106 cells and 320.283 pmol/106 cells
CYP3A4; [10]
  Enzyme activity: 439.172 pmol/106 cells and 380.966 pmol/106 cells and 417.242 pmol/106 cells and 349.083 pmol/106 cells
CYP3A4; [11]
  Enzyme activity: 536.397 pmol/106 cells and 514.134 pmol/106 cells and 491.294 pmol/106 cells and 551.51 pmol/106 cells
CYP3A4; icHep (HUM18100B)
  Enzyme activity, Mean: 8.98 pmol/min/106 cells
CYP3A4; [12]
  Enzyme activity: 8.99 pmol/min/106 cells and 8.81 pmol/min/106 cells and 7.34 pmol/min/106 cells and 10.8 pmol/min/106 cells
CYP3A4; [13]
  Enzyme activity: 99.4818 pmol/106 cells and 103.678 pmol/106 cells and 120.741 pmol/106 cells and 92.847 pmol/106 cells
CYP3A4; [14]
  Enzyme activity: 252.368 pmol/106 cells and 242.904 pmol/106 cells and 185.11 pmol/106 cells and 190.476 pmol/106 cells
CYP3A4; [15]
  Enzyme activity: 266.706 pmol/106 cells and 248.159 pmol/106 cells and 239.281 pmol/106 cells and 225.504 pmol/106 cells
CYP3A4; [16]
  Enzyme activity: 273.171 pmol/106 cells and 272.05 pmol/106 cells and 245.256 pmol/106 cells and 275.122 pmol/106 cells
CYP3A4; [17]
  Enzyme activity: 330.978 pmol/106 cells and 294.591 pmol/106 cells and 323.573 pmol/106 cells and 259.768 pmol/106 cells
CYP3A4; icHep (JFC)
  Enzyme activity, Mean: 7.57 pmol/min/106 cells

## O=c1[nH]c2cc(Cl)c(O)cc2o1 [6'-hydroxychlorzoxazone]
CYP2E1; [1]
  Enzyme activity: 2.306 pmol/106 cells and 2.95 pmol/106 cells and 3.355 pmol/106 cells and 2.895 pmol/106 cells
CYP2E1; [2]
  Enzyme activity: 5.44 pmol/106 cells and 5.421 pmol/106 cells and 6.357 pmol/106 cells and 6.2485 pmol/106 cells
CYP2E1; [3]
  Enzyme activity: 6.903 pmol/106 cells and 8.029 pmol/106 cells and 8.51 pmol/106 cells and 7.254 pmol/106 cells
CYP2E1; [4]
  Enzyme activity: 7.3761 pmol/106 cells and 7.959 pmol/106 cells and 8.112 pmol/106 cells and 7.339 pmol/106 cells
CYP2E1; [5]
  Enzyme activity: 7.477 pmol/106 cells and 10.4196 pmol/106 cells and 8.199 pmol/106 cells and 8.482 pmol/106 cells
CYP2E1; PXB-cells (JFC)
  Enzyme activity, Mean: 0.160 pmol/min/106 cells
CYP2E1; [6]
  Enzyme activity: 0.153 pmol/min/106 cells and 0.169 pmol/min/106 cells and 0.172 pmol/min/106 cells and 0.145 pmol/min/106 cells
CYP2E1; [7]
  Enzyme activity: 10.0765 pmol/106 cells and 9.906 pmol/106 cells and 11.3983 pmol/106 cells and 9.755 pmol/106 cells
CYP2E1; [8]
  Enzyme activity: 22.452 pmol/106 cells and 22.028 pmol/106 cells and 22.1618 pmol/106 cells and 20.005 pmol/106 cells
CYP2E1; [9]
  Enzyme activity: 33.1164 pmol/106 cells and 28.7079 pmol/106 cells and 30.6951 pmol/106 cells and 27.4528 pmol/106 cells
CYP2E1; [10]
  Enzyme activity: 42.0307 pmol/106 cells and 37.5801 pmol/106 cells and 42.224 pmol/106 cells and 33.7793 pmol/106 cells
CYP2E1; [11]
  Enzyme activity: 67.3851 pmol/106 cells and 64.4144 pmol/106 cells and 55.8641 pmol/106 cells and 56.1231 pmol/106 cells
CYP2E1; icHep (HUM18100B)
  Enzyme activity, Mean: 0.628 pmol/min/106 cells
CYP2E1; [12]
  Enzyme activity: 0.710 pmol/min/106 cells and 0.598 pmol/min/106 cells and 0.673 pmol/min/106 cells and 0.530 pmol/min/106 cells
CYP2E1; [13]
  Enzyme activity: 2.771 pmol/106 cells and 3.158 pmol/106 cells and 3.038 pmol/106 cells and 3.018 pmol/106 cells
CYP2E1; [14]
  Enzyme activity: 4.046 pmol/106 cells and 4.392 pmol/106 cells and 5.788 pmol/106 cells and 6.302 pmol/106 cells
CYP2E1; [15]
  Enzyme activity: 8.107 pmol/106 cells and 7.33 pmol/106 cells and 8.049 pmol/106 cells and 8.219 pmol/106 cells
CYP2E1; [16]
  Enzyme activity: 8.619 pmol/106 cells and 8.336 pmol/106 cells and 6.8 pmol/106 cells and 10.6833 pmol/106 cells
CYP2E1; [17]
  Enzyme activity: 10.5593 pmol/106 cells and 9.487 pmol/106 cells and 8.477 pmol/106 cells and 10.9673 pmol/106 cells
CYP2E1; icHep (JFC)
  Enzyme activity, Mean: 0.164 pmol/min/106 cells
CYP2E1; [18]
  Enzyme activity: 0.178 pmol/min/106 cells and 0.139 pmol/min/106 cells and 0.167 pmol/min/106 cells and 0.173 pmol/min/106 cells
